Measurements as given in ChEMBL document CHEMBL1201862, “PubChem BioAssay data set” (2004).
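Compound exposure: 48 hours, 5 concentrations, 96-well plates. GI50 is the concentration that inhibits growth by half.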 Calls of active or inactive are those of the source. Rule as the data show it: active = GI50 up to about 1.1 µM and inactive = higher.

Experiments:
Test in all cases: growth of human tumour cells (NCI), 48 h
[1] = test system: COLO 205
[2] = test system: K562
[3] = test system: NCI-H460
[4] = test system: NCI-H23
[5] = test system: TK-10
[6] = test system: SK-MEL-28
[7] = test system: OVCAR-3
[8] = test system: MOLT-4
[9] = test system: RPMI-8226
[10] = test system: A498
[11] = test system: HCT-15
[12] = test system: A549
[13] = test system: OVCAR-5
[14] = test system: NCI-H522
[15] = test system: DU-145
[16] = test system: EKVX
[17] = test system: M14
[18] = test system: MDA-MB-435
[19] = test system: PC-3
[20] = test system: HT-29
[21] = test system: UO-31
[22] = test system: BT-549
[23] = test system: SNB-19
[24] = test system: SK-OV-3
[25] = test system: SF-295
[26] = test system: HCT-116
[27] = test system: T47D
[28] = test system: SF-268
[29] = test system: IGROV-1
[30] = test system: U-251
[31] = test system: CCRF-CEM
[32] = test system: SF-539
[33] = test system: HOP-92
[34] = test system: MDA-N
[35] = test system: Malme-3M
[36] = test system: KM12
[37] = test system: SK-MEL-2
[38] = test system: SNB-75
[39] = test system: Hs-578T
[40] = test system: NCI-H226
[41] = test system: HCC 2998
[42] = test system: OVCAR-8
[43] = test system: SR
[44] = test system: LOX IMVI
[45] = test system: NCI/ADR-RES
[46] = test system: SK-MEL-5
[47] = test system: HOP-62
[48] = test system: MCF7
[49] = test system: SN12C
[50] = test system: ACHN
[51] = test system: SW-620
[52] = test system: 786-0
[53] = test system: RXF 393
[54] = test system: OVCAR-4
[55] = test system: CAKI-1
[56] = test system: UACC-257
[57] = test system: UACC-62
[58] = test system: MDA-MB-231

## O=C(Nc1ccc2ncccc2c1)Nc1ccc2ncccc2c1
[1]
  GI50: > 100 µM (inactive)
[2]
  GI50: > 100 µM (inactive)
[3]
  GI50: > 100 µM (inactive)
[4]
  GI50: > 100 µM (inactive)
[5]
  GI50: > 100 µM (inactive)
[6]
  GI50: > 100 µM (inactive)
[7]
  GI50: > 100 µM (inactive)
[8]
  GI50: > 100 µM (inactive)
[9]
  GI50: > 100 µM (inactive)
[10]
  GI50: > 100 µM (inactive)
[11]
  GI50: > 100 µM
[12]
  GI50: > 100 µM (inactive)
[13]
  GI50: > 100 µM (inactive)
[14]
  GI50: > 100 µM (inactive)
[15]
  GI50: > 100 µM (inactive)
[16]
  GI50: > 100 µM (inactive)
[17]
  GI50: > 100 µM (inactive)
[18]
  GI50: > 100 µM (inactive)
[19]
  GI50: > 100 µM (inactive)
[20]
  GI50: > 100 µM (inactive)
[21]
  GI50: > 100 µM (inactive)
[22]
  GI50: > 100 µM (inactive)
[23]
  GI50: > 100 µM (inactive)
[24]
  GI50: > 100 µM (inactive)
[25]
  GI50: > 100 µM (inactive)
[26]
  GI50: > 100 µM (inactive)
[27]
  GI50: > 100 µM (inactive)
[28]
  GI50: > 100 µM (inactive)
[29]
  GI50: > 100 µM (inactive)
[30]
  GI50: > 100 µM (inactive)
[31]
  GI50: > 100 µM (inactive)
[32]
  GI50: > 100 µM (inactive)
[33]
  GI50: > 100 µM (inactive)
[34]
  GI50: > 100 µM (inactive)
[35]
  GI50: > 100 µM (inactive)
[36]
  GI50: > 100 µM (inactive)
[37]
  GI50: > 100 µM (inactive)
[38]
  GI50: > 100 µM (inactive)
[39]
  GI50: > 100 µM (inactive)
[40]
  GI50: > 100 µM (inactive)
[41]
  GI50: > 100 µM (inactive)
[42]
  GI50: > 100 µM (inactive)
[43]
  GI50: > 100 µM (inactive)
[44]
  GI50: > 100 µM (inactive)
[45]
  GI50: > 100 µM (inactive)
[46]
  GI50: > 100 µM (inactive)
[47]
  GI50: > 100 µM (inactive)
[48]
  GI50: > 100 µM (inactive)
[49]
  GI50: > 100 µM (inactive)
[50]
  GI50: > 100 µM (inactive)
[51]
  GI50: > 100 µM (inactive)
[52]
  GI50: > 100 µM (inactive)
[53]
  GI50: > 100 µM (inactive)
[54]
  GI50: > 100 µM (inactive)
[55]
  GI50: > 100 µM (inactive)
[56]
  GI50: > 100 µM (inactive)
[57]
  GI50: > 100 µM (inactive)
[58]
  GI50: > 100 µM (inactive)
